Measured values as given in patent publication US8063055B2, “Substituted pyridone compounds and methods of use” (Amgen Inc., priority 2007, dated 2011).
Read-outs that look alike come from different tables or passages of the source.

Legend:
[1] = tested on: SCF-stimulated UT-7 cells; settings: Homo sapiens
Text: SCF and GM-CSF Stimulated UT7 Proliferation/Survival Assay:
The purpose of this assay is to test the general anti-proliferative/cytotoxic effect of small molecule compounds on SCF or GM-CSF-stimulated UT-7 cells. Preventing SCF stimulated proliferation/survival is consistent with an on-mechanism effect whereas inhibition of GM-CSF driven proliferation/survival is indicative of off-target effects. UT-7 is a factor dependent human megakaryoblastic leukemia cell line that can be grown in either IL-3, GM-CSF, EPO or SCF (these cells have been confirmed to carry wild type c-kit receptor). Cells are maintained in growth media (IMDM, 10% HI-FBS, 1×PGS, 1 ng/mL GM-CSF). […] Small molecule compounds are first diluted in 100% DMSO, then diluted 1:4 in RT assay media. […] The treated cells are incubated in a 37° C. humidified incubator with 5% CO2 for 3 days. The amount of ATP is then measured as a surrogate marker for cell viability. […] The amount of SCF or GM-CSF stimulated viable cells in the presence of compound compared with in the presence of vehicle alone (HI control) is calculated using the formula: % control (POC)=(cpd−average LO)/(average HI−average LO)*100. Data (consisting of POC and inhibitor concentration in μM) is fitted to a 4-parameter equation (y=A+((B−A)/(1+((x/C)^D))), where A is the minimum y (POC) value, B is the maximum y (POC), C is the x (cpd concentration) at the point of inflection and D is the slope factor) using a Levenburg-Marquardt non-linear regression algorithm.

c-kit kinase enzyme = target: T1, c-kit kinase enzyme (Homo sapiens, UniProt P10721); test: C-kit Homogeneous Time Resolved Fluorescent (HTRF) kinase assay; type: biochemical
T1 construct: (catalytic domain, N-terminal GST tagged, unphosphorylated)
T1 sequence (P10721 589-937 limits assumed): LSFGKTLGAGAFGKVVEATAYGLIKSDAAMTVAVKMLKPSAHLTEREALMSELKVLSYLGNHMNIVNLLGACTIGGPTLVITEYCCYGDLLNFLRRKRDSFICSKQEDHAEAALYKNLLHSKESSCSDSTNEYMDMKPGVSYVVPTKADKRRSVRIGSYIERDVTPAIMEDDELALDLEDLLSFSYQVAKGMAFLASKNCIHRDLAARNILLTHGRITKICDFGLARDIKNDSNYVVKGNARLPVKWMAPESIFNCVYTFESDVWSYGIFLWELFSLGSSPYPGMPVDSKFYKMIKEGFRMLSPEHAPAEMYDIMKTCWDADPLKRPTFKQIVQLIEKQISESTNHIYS

[2] = UT7, 72 h, read-out: UT7 Proliferation cell assay data
[3] = HTRF Fret enzyme assay data, c-kit catalytic domain, biotinylated Her-2 peptide substrate, ATP
[4] = c-kit catalytic domain, biotinylated Her-2 peptide substrate, ATP, read-out: HTRF Fret enzyme assay data

SMILES | IC50 [1, 2] [nM] | IC50 (c-kit kinase enzyme; [3]) [nM] | also measured
Cc1ccn(-c2ccc(-n3cccc3)cc2)c(=O)c1-c1ccc2nc(N)ncc2c1 [Example 5, 1-(4-(1H-pyrrol-1-yl)phenyl)-3-(2-aminoquinazolin-6-yl)-4-methylpyridin-2(1H)-one] | 4.83 | 2.25 | IC50 ([1]; UT7, read-out: average IC50 value in the SCF stimulated UT7 proliferation and survival assay): ≤ 1000 nM
Cc1ccc(-n2ccc(C)c(-c3ccc4nc(N)ncc4c3)c2=O)cc1F [Example 6, 3-(2-aminoquinazolin-6-yl)-1-(3-fluoro-4-methylphenyl)-4-methylpyridin-2(1H)-one] | 12.1 | – | IC50 (c-kit kinase enzyme; [4]): 40.1 nM
Cc1ccn(-c2ccc(-c3ncco3)cc2)c(=O)c1-c1ccc2nc(N)ncc2c1 [Example 7, 3-(2-aminoquinazolin-6-yl)-4-methyl-1-(4-(oxazol-2-yl)phenyl)pyridin-2(1H)-one] | 15.5 | 21.6 | –
Cc1cc(C)cc(-n2ccc(C)c(-c3ccc4nc(N)ncc4c3)c2=O)c1 [Example 8, 3-(2-aminoquinazolin-6-yl)-1-(3,5-dimethylphenyl)-4-methylpyridin-2(1H)-one] | 50.1 | 16.1 | –
Cc1ccn(-c2cccc(C#N)c2)c(=O)c1-c1ccc2nc(N)ncc2c1 [Example 9, 3-(3-(2-aminoquinazolin-6-yl)-4-methyl-2-oxopyridin-1(2H)-yl)benzonitrile] | 107 | 88.8 | –
Cc1ccn(-c2ccc3[nH]c(C(F)(F)F)nc3c2)c(=O)c1-c1ccc2nc(N)ncc2c1 [Example 10, 3-(2-aminoquinazolin-6-yl)-4-methyl-1-(2-(trifluoromethyl)-1H-benzo[d]imidazol-5-yl)pyridin-2(1H)-one] | 189 | 34.8 | –
COc1cc(-n2ccc(C)c(-c3ccc4nc(N)ncc4c3)c2=O)cc(C(F)(F)F)c1 [Example 11, 3-(2-aminoquinazolin-6-yl)-1-(3-methoxy-5-(trifluoromethyl)phenyl)-4-methylpyridin-2(1H)-one] | 58.8 | 11.1 | –
Cc1ccn(-c2ccc(C(C)(C)C)cc2)c(=O)c1-c1ccc2nc(N)ncc2c1 [Example 12, 3-(2-amino-6-quinazolinyl)-1-(4-(1,1-dimethylethyl)phenyl)-4-methyl-2(1H)-pyridinone] | 16.5 | 2.06 | –
Cc1ccc(-n2ccc(C)c(-c3ccc4nc(N)ncc4c3)c2=O)cc1C [Example 13, 3-(2-amino-6-quinazolinyl)-1-(3,4-dimethylphenyl)-4-methyl-2(1H)-pyridinone] | 5.4 | 3.67 | –
Cc1ccn(-c2cccc(OC(F)(F)F)c2)c(=O)c1-c1ccc2nc(N)ncc2c1 [Example 14, 3-(2-amino-6-quinazolinyl)-4-methyl-1-(3-((trifluoromethyl)oxy)phenyl)-2(1H)-pyridinone] | 16.2 | 4.04 | –
Cc1ccn(-c2ccc3c(c2)NCC3(C)C)c(=O)c1-c1ccc2nc(N)ncc2c1 [Example 15, 3-(2-amino-6-quinazolinyl)-1-(3,3-dimethyl-2,3-dihydro-1H-indol-6-yl)-4-methyl-2(1H)-pyridinone] | 19.4 | 4.7 | –
Cc1ccn(-c2ccc3ncccc3c2)c(=O)c1-c1ccc2nc(N)ncc2c1 [Example 16, 3-(2-amino-6-quinazolinyl)-4-methyl-1-(6-quinolinyl)-2(1H)-pyridinone] | 56.8 | 5.29 | –
Cc1ccn(-c2ccc3c(c2)CCO3)c(=O)c1-c1ccc2nc(N)ncc2c1 [Example 17, 3-(2-amino-6-quinazolinyl)-1-(2,3-dihydro-1-benzofuran-5-yl)-4-methyl-2(1H)-pyridinone] | 15.1 | 7.58 | –
Cc1ccn(-c2ccc3[nH]ccc3c2)c(=O)c1-c1ccc2nc(N)ncc2c1 [Example 18, 3-(2-amino-6-quinazolinyl)-4-methyl-1-(1H-indol-5-yl)-2(1H)-pyridinone] | 28.8 | 8.65 | –
CC(=O)N1CC(C)(C)c2ccc(-n3ccc(C)c(-c4ccc5nc(N)ncc5c4)c3=O)cc21 [Example 19, 1-(1-acetyl-3,3-dimethyl-2,3-dihydro-1H-indol-6-yl)-3-(2-amino-6-quinazolinyl)-4-methyl-2(1H)-pyridinone] | 226 | 9.75 | –
Cc1ccn(-c2cccc(C(F)(F)F)c2)c(=O)c1-c1ccc2nc(N)ncc2c1 [Example 20, 3-(2-amino-6-quinazolinyl)-4-methyl-1-(3-(trifluoromethyl)phenyl)-2(1H)-pyridinone] | 27.9 | – | –
COc1cccc(-n2ccc(C)c(-c3ccc4nc(N)ncc4c3)c2=O)c1 [Example 22, 3-(2-amino-6-quinazolinyl)-4-methyl-1-(3-(methyloxy)phenyl)-2(1H)-pyridinone] | 27.7 | – | IC50 (c-kit kinase enzyme; [4]): 65.3 nM
Cc1ccn(Cc2ccccc2)c(=O)c1-c1ccc2nc(N)ncc2c1 [Example 24, 3-(2-aminoquinazolin-6-yl)-1-benzyl-4-methylpyridin-2(1H)-one] | 13 | 6 | –
Cc1ccn(CCC(C)C)c(=O)c1-c1ccc2nc(N)ncc2c1 [Example 25, 3-(2-aminoquinazolin-6-yl)-1-isopentyl-4-methylpyridin-2(1H)-one] | 84 | 18 | –

SMILES | IC50 [1, 2] [nM] | IC50 (c-kit kinase enzyme; [3]) [nM] | also measured
Cc1ccn(-c2ccc3c(ccn3-c3ccc4[nH]ccc4c3)c2)c(=O)c1-c1ccc2nc(N)ncc2c1 [Example 26, 3-(2-amino-6-quinazolinyl)-1-(1′H-1,5′-biindol-5-yl)-4-methyl-2(1H)-pyridinone] | 11 | 2 | –
Cc1ccn(-c2ccc(C(C)C)cc2)c(=O)c1-c1ccc2nc(N)ncc2c1 [Example 27, 3-(2-aminoquinazolin-6-yl)-1-(4-isopropylphenyl)-4-methylpyridin-2(1H)-one] | 5 | 2 | –
CC(=O)c1ccc(-n2ccc(C)c(-c3ccc4nc(N)ncc4c3)c2=O)cc1 [Example 28, 1-(4-acetylphenyl)-3-(2-aminoquinazolin-6-yl)-4-methylpyridin-2(1H)-one] | – | – | IC50 (c-kit kinase enzyme; [4]): 20 nM
CCOC(=O)c1ccc(-n2ccc(C)c(-c3ccc4nc(N)ncc4c3)c2=O)cc1 [Example 29, ethyl 4-(3-(2-aminoquinazolin-6-yl)-4-methyl-2-oxopyridin-1(2H)-yl)benzoate] | 66 | – | IC50 (c-kit kinase enzyme; [4]): 17 nM
Cc1ccn(-c2ccc(C(F)(F)F)cc2)c(=O)c1-c1ccc2nc(N)ncc2c1 [Example 30, 3-(2-aminoquinazolin-6-yl)-4-methyl-1-(4-(trifluoromethyl)phenyl)pyridin-2(1H)-one] | 18 | 8 | –
COc1ccc(-n2ccc(C)c(-c3ccc4nc(N)ncc4c3)c2=O)cc1 [Example 31, 3-(2-aminoquinazolin-6-yl)-1-(4-methoxyphenyl)-4-methylpyridin-2(1H)-one] | – | – | IC50 (c-kit kinase enzyme; [4]): 17 nM
Cc1ccn(-c2ccc(Cl)cc2)c(=O)c1-c1ccc2nc(N)ncc2c1 [Example 32, 3-(2-aminoquinazolin-6-yl)-1-(4-chlorophenyl)-4-methylpyridin-2(1H)-one] | 14 | – | IC50 (c-kit kinase enzyme; [4]): 20 nM
Cc1ccn(-c2ccc(N3CCN(C(=O)OC(C)(C)C)CC3)cc2)c(=O)c1-c1ccc2nc(N)ncc2c1 [Example 36, tert-butyl 4-(4-(3-(2-aminoquinazolin-6-yl)-4-methyl-2-oxopyridin-1(2H)-yl)phenyl)piperazine-1-carboxylate] | – | 1370 | –
CCOC(=O)CNc1ccc(-n2ccc(C)c(-c3ccc4nc(N)ncc4c3)c2=O)cc1 [Example 37, ethyl 2-(4-(3-(2-aminoquinazolin-6-yl)-4-methyl-2-oxopyridin-1(2H)-yl)phenylamino)acetate] | – | 181 | –
Cc1ccn(-c2ccc(Cl)c(F)c2)c(=O)c1-c1ccc2nc(N)ncc2c1 [Example 44, 3-(2-aminoquinazolin-6-yl)-1-(4-chloro-3-fluorophenyl)-4-methylpyridin-2(1H)-one] | – | – | IC50 (c-kit kinase enzyme; [4]): 59.7 nM
Cc1ccn(CC2CCCCC2)c(=O)c1-c1ccc2nc(N)ncc2c1 [Example 47, 3-(2-aminoquinazolin-6-yl)-1-(cyclohexylmethyl)-4-methylpyridin-2(1H)-one] | – | 132 | –
Cc1ccn(CC2CCC2)c(=O)c1-c1ccc2nc(N)ncc2c1 [Example 48, 3-(2-aminoquinazolin-6-yl)-1-(cyclobutylmethyl)-4-methylpyridin-2(1H)-one] | – | 1410 | –
Cc1ccn(CC(C)C)c(=O)c1-c1ccc2nc(N)ncc2c1 [Example 49, 3-(2-aminoquinazolin-6-yl)-1-isobutyl-4-methylpyridin-2(1H)-one] | – | 2250 | –
CCCn1ccc(C)c(-c2ccc3nc(N)ncc3c2)c1=O [Example 50, 3-(2-aminoquinazolin-6-yl)-4-methyl-1-propylpyridin-2(1H)-one] | – | 315 | IC50 (c-kit kinase enzyme; average IC50 value, inhibition of the c-kit kinase enzyme in a human HTRF assay, 1.0 uM or less): ≤ 1000 nM
COC(=O)Cn1ccc(C)c(-c2ccc3nc(N)ncc3c2)c1=O [Example 51, methyl 2-(3-(2-aminoquinazolin-6-yl)-4-methyl-2-oxopyridin-1(2H)-yl)acetate] | – | 1190 | –
CCCCn1ccc(C)c(-c2ccc3nc(N)ncc3c2)c1=O [Example 53, 3-(2-aminoquinazolin-6-yl)-1-butyl-4-methylpyridin-2(1H)-one] | – | 118 | –
Cc1ccn(CCN(C)C)c(=O)c1-c1ccc2nc(N)ncc2c1 [Example 55, 3-(2-aminoquinazolin-6-yl)-1-(2-(dimethylamino)ethyl)-4-methylpyridin-2(1H)-one] | – | 1580 | –
COCCn1ccc(C)c(-c2ccc3nc(N)ncc3c2)c1=O [Example 56, 3-(2-aminoquinazolin-6-yl)-1-(2-methoxyethyl)-4-methylpyridin-2(1H)-one] | – | 2230 | –
Cc1ccn(CCn2cccn2)c(=O)c1-c1ccc2nc(N)ncc2c1 [Example 60, 1-(2-(1H-pyrazol-1-yl)ethyl)-3-(2-aminoquinazolin-6-yl)-4-methylpyridin-2(1H)-one] | – | 176 | –
